Results published in patent US12421257B2, “Compositions and methods for inhibiting group II intron RNA” (YALE UNIVERSITY, priority 2018, dated 2025).
≈ marks a conversion by molar mass, not a printed value. Entries after “also recorded” stand apart in the source; their conditions may differ.

Columns and labels:
ai5γ group II intron = test: Radioanalytic self-splicing assay of SE RNA (Ki); assay type: biochemical, Saccharomyces cerevisiae; settings: 8 mM MgCl2, 100 mM KCl, pH 7.5, 30° C.
Procedure: Internally labeled SE RNA (2 nM) was incubated with various concentrations of inhibitor compound under near-physiological conditions (in 50 mM MOPS, pH 7.5, 8 mM MgCl2, 100 mM KCl) at 30° C. Aliquots at different time points were quenched and analyzed on 5% denaturing polyacrylamide gel as previously described (Daniels et al., 1996, Journal of molecular biology, 256:31-49). Data were fit to a single-exponential equation to determine the first order rate constants (kobs). The latter were then plotted against the concentration of the inhibitor and fit to the equation for non-competitive inhibition to determine Ki values: kobs=kmax/(1+[I]/Ki), where kobs and kmax are the first order rate constants measured in the presence and in the absence of the inhibitor, respectively, [I] is the concentration of the inhibitor and Ki is the inhibition constant. Experiments were performed four times for API-014, three times for APY-090, Intronistat A, and Intronistat B and twice for the remaining compounds to ensure reproducibility. Data represent average±s.e.m.

HEK-293T cells = test: Cytotoxicity in HEK-293T cells (Cell Titer Glo); assay type: cell-based, human; settings: Homo sapiens, cytotoxicity, 24 hours with compound, read-out: IC50 HEK-293
Procedure: HEK-293T cells were cultured in Dulbecco's Modified Eagle's Medium (DMEM) (Gibco) supplemented with 10% Fetal Bovine Serum (FBS, Gibco) and 100 U/ml of Penicillin-Streptomycin (Gibco) at 37° C. and 5% CO2. For the cytotoxicity experiments, cells were aliquoted into black 96-well plates with a clear bottom (Corning 3603) at a concentration of 10,000 cells per well. The cells were grown at 37° C., 5% CO2 for 5-6 hours, then the medium was replaced with the same medium without FBS and cells were grown at 37° C., 5% CO2 for 24 hours. Freshly prepared stock solutions of test compounds (12.8 mg/ml in DMSO) were serially diluted 1:2 with DMSO into the first 11 successive wells of a 12-well row on a 96-well plate as described above. Well 12 was used as a growth control (no compound). […] After incubation, cell viability was determined using the luminescent Cell Titer Glo cell viability assay (Promega), in which 100 μl of the assay reagent was added to each well of the assay plate. After gentle shaking for 7-10 minutes, the plates were analyzed on a Synergy H1 plate reader (BioTek). Luminescence was plotted against the compound concentration and IC50 values were determined by fitting the data to a 4-parameter logistic function c+(d−c)/(1+(x/a)^b), where a is the IC50, b is the slope parameter, c is the minimum response and d is the maximum response. Experiments were replicated to ensure reproducibility.

C. parapsilosis = test: MIC determination against C. parapsilosis; assay type: cell-based, Candida parapsilosis; settings: Lodderomyces parapsilosis; RPMI-1640, 35° C. or 37° C., turbidity after 24 and 48 hours
Procedure: Minimal inhibitory concentrations (MICs) for C. parapsilosis were determined in a final volume of 100 μl. Fresh stock solutions of control antifungal drugs (Amphotericin B and Itraconazole) and of test compounds were prepared at 3.2 mg/ml and at 12.8 mg/ml respectively in DMSO. After placing the stock in the first well, solutions of test compounds and antifungal controls were serially diluted 1:2 with DMSO into the first […] successive wells of a 12-well row on a 96-well plate (as described above). After dilution, 2.5 μl from each of these 10 wells were transferred onto a separate 96-well plate and diluted with 122.5 μl of RPMI-1640 medium (Sigma). Wells 11 and 12 contained 2.5 μl DMSO and 122.5 μl of RPMI-1640 as a positive growth control (no compound) and sterility control (no inoculum added). A 50 μl volume was taken from each of the RPMI dilutions (wells 1-12) and transferred to the wells of a third 96-well plate (assay plate), where they were mixed with an equal volume (50 μl) of freshly prepared inoculum of C. parapsilosis in RPMI-1640 medium, set at a density to provide the 0.5×10^3 to 2.5×10^3 colony forming units per 1 mL (except for the sterility control). Sterility control was mixed with 50 μl of sterile medium.
The final concentration range of the assay was 0.25-128 μg/ml for test compounds and 0.0625-32 μg/ml for Amphotericin B and Itraconazole. The final concentration of DMSO was 1%. The assay plate was incubated at 35° C. or 37° C. and visually analyzed for turbidity after 24 and 48 hours of incubation. The lowest compound concentration at which no growth was apparent is reported as the MIC. All experiments were performed in triplicate.

[1] = test system: ai5γ group II intron (D135 ribozyme); test: Fluorescent D135 ribozyme cleavage assay (IC50); assay type: biochemical, Saccharomyces cerevisiae; settings: for IC50: D135 ribozyme cleavage of substrate 17/2 DL, 100 mM MgCl2, 500 mM KCl, 37° C., 10 minutes
Procedure: The D135 ribozyme (Su et al., 2005, Nucleic Acids Res, 33:6674-6687), fluorescently labeled oligo substrate 17/2 DL (FIG. 1A-FIG. 1D) (both at 20 nM final concentrations in 50 mM MOPS, pH 7.0, 100 mM MgCl2, 0.5M KCl), and the test compounds (final concentration of 10 μM in 50 mM MOPS, pH 7.0, 100 mM MgCl2, 0.5M KCl) were aliquoted onto black non-binding 384-well plates (Corning 3757) using the multidrop combi (ThermoFisherScientific) and pintool (V & P Scientific). The reaction mixtures were incubated at 37° C. for 45 minutes, then the reaction was quenched with 100 mM EDTA and fluorescence intensity was analyzed on a Tecan Infinite multimode plate reader (λex 520 nm, λem 560 nm, 5 nm bandwidth). Data were normalized to untreated wells and wells lacking the D135 ribozyme, and percent of inhibition was calculated using ActivityBase (IDBS). The Z′-factor was calculated as described (Zhang et al., 1999, J Biomol Screen, 4:67-73): Z′=1−3×(σp+σn)/|μp−μn|, • where μp and σn are mean value and standard deviation for the positive control (substrate only), and where μn and σn are mean value and standard deviation for the negative control (no compound). The average Z′-factor from the screen was 0.83±0.03. IC50 Measurement for the Small Molecule Inhibition of the D135 Ribozyme Cleavage Reaction.
Black 96-well plates (Corning 3695) were filled with 50 μl of solution containing 20 nM D135 ribozyme, 20 nM double-labeled substrate 17/2 DL and small molecule inhibitor in 50 mM MOPS, pH 7.0, 100 mM MgCl2 and 500 mM KCl. Small molecule inhibitors were tested at 19 different concentrations ranging from 5 nM to 1 mM. Plates were incubated at 37° C. for 10 minutes, then reaction mixtures were quenched with 100 mM EDTA and analyzed on the Synergy H1 plate reader (BioTek). Each experiment was performed in triplicate. Data were fit to a 4-parameter logistic function c+(d−c)/(1+(x/a)^b), where a is the IC50, b is the slope parameter, c is the minimum response and d is the maximum response. Data are reported as average±s.e.m

| SMILES | Ki (ai5γ group II intron) [µM] | MIC (C. parapsilosis) [µg/mL] | IC50 [1] [µM] | IC50 ([1]; listed as compound 1) [µM] | IC50 (HEK-293T cells) [µg/mL] | In vitro inhibitory activity, SAR statement (in words) ([1]; relative to parent scaffold) |
| --- | --- | --- | --- | --- | --- | --- |
| O=C1/C(=C/c2ccc(B(O)O)cc2)Oc2cc(O)cc(O)c21 [APY-006] | 55 |  |  |  |  |  |
| O=C1/C(=C/c2ccc(O)c(O)c2)Oc2cc(O)cc(O)c21 [APY-007, (Z)-2-(3,4-Dihydroxybenzylidene)-4,6-dihydroxybenzofuran-3(2H)-one] | 156 ± 34 | > 128 | > 100 |  | > 128 | nearly complete loss of activity; also recorded: inactivated both in vitro and in vivo |
| O=C1/C(=C/c2cc(F)c(O)c(F)c2)Oc2cc(O)cc(O)c21 [APY-010] | 140 | > 128 |  |  | 0.55 |  |
| O=C1/C(=C/c2cc(O)c(O)c(O)c2)Oc2cc(O)ccc21 [APY-013] | 16.5 | 32 (≈ 112 µM) | 16.7 |  | 19 |  |
| COc1cccc(/C=N/NC(=O)c2ccc(B(O)O)cc2)c1O [APY-018] | 660 |  |  |  |  |  |
| O=C(N/N=C/c1ccccc1O)c1cc(O)c(O)c(O)c1 [APY-021] | 9.4 | 32 (≈ 111 µM) | 14 |  |  |  |
| O=C(N/N=C/c1ccc(O)cc1O)c1cc(O)c(O)c(O)c1 [APY-022] | 6.5 | 32 (≈ 105 µM) | 5.5 |  | 17.6 |  |
| COc1cc(CCC(=O)c2cc(O)c(O)c(O)c2)cc(OC)c1OC [APY-069] | 29 | 32 (≈ 91.9 µM) | 27 |  | > 128 |  |
| O=C(c1cc(O)c(O)c(O)c1)c1cc2cc(F)ccc2o1 [APY-070] | 1 | 32 (≈ 111 µM) | 4.2 |  | > 128 |  |
| O=C(c1cc(O)c(O)c(O)c1)c1cc2c(ccc3ccccc32)o1 [APY-071] | 0.15 | 16 (≈ 50 µM) | 0.3 |  | 6 |  |
| O=C1/C(=C/c2cc(O)c(O)c(O)c2)Oc2cc(O)cc(O)c21 [Compound 1, reference compound] | 2.1 ± 0.6 |  | 2.3 ± 0.4 | 2 |  |  |
| CN1CCC(CNC(=O)c2ccc3oc(C(=O)c4cc(O)c(O)c(O)c4)cc3c2)CC1 [NED-2023, N-((1-methylpiperidin-4-yl)methyl)-2-(3,4,5-trihydroxybenzoyl)-benzofuran-5-carboxamide] |  | 16 (≈ 37.7 µM) | 6 ± 2 |  | 36 |  |
| CCCCNc1nc(-c2cc(O)c(O)c(O)c2)cs1 [NED-2034] |  | 8 to 16 (≈ 28.5 to 57.1 µM) | > 1000 |  | 22 |  |
| O=C(Nc1cc(O)c(O)c(O)c1)N1CCN(c2ccc(Cl)c(Cl)c2)CC1 [NED-2035] |  | > 128 | 55 ± 4 |  | 1.6 |  |
| O=C(N/N=C/c1c(O)ccc2ccccc12)c1cc(O)c(O)c(O)c1 [NED-2037, (E)-3,4,5-trihydroxy-N′-((2-hydroxynaphthalen-1-yl)methylene)benzohydrazide] |  | 16 (≈ 47.3 µM) | 1.8 ± 0.5 |  | 2.8 |  |
| COc1ccc2ccccc2c1/C=N/NC(=O)c1cc(O)c(O)c(O)c1 [NED-2173, (E)-3,4,5-trihydroxy-N′-((2-methoxynaphthalen-1-yl)methylene)benzohydrazide] |  | 8 (≈ 22.7 µM) | 6 ± 1 |  | 8.6 |  |

The next lines start with results.

| Ki (ai5γ group II intron) [µM] | MIC (C. parapsilosis) [µg/mL] | IC50 [1] [µM] | IC50 ([1]; listed as compound 1) [µM] | SMILES | IC50 (HEK-293T cells) [µg/mL] | In vitro inhibitory activity, SAR statement (in words) ([1]; relative to parent scaffold) |
| --- | --- | --- | --- | --- | --- | --- |
| 1.1 | 8 (≈ 23.9 µM) | 1.3 |  | COc1cc(/C=N/NC(=O)c2cc(O)c(O)c(O)c2)cc(O)c1O [APY-038] | 15.9 |  |
|  | 8 (≈ 24.1 µM) | 14 ± 1 |  | COc1ccc(/C=N/NC(=O)c2cc(O)c(O)c(O)c2)c(OC)c1 [NED-2036, N′-(2,4-dimethoxybenzylidene)-3,4,5-trihydroxybenzohydrazide] | 8.2 |  |
|  | 8 (≈ 16.2 µM) | > 1000 |  | Cc1[nH]c(/C=C/C(=O)c2cc(O)c(O)c(O)c2)c(C)c1C(=O)N1CCN(Cc2ccc(F)cc2)CC1 [NED-2040] | 7.5 |  |
|  | 4 to 8 (≈ 12.7 to 25.4 µM) | 4 ± 1 |  | CN(C)c1ccc(/C=N/NC(=O)c2cc(O)c(O)c(O)c2)cc1 [NED-2048, (E)-N′-(4-(dimethylamino)benzylidene)-3,4,5-trihydroxybenzohydrazide] | 9.8 |  |
|  | 2 to 4 (≈ 6.21 to 12.4 µM) | 3.3 ± 1 |  | O=C(N/N=C/c1cccc2ccccc12)c1cc(O)c(O)c(O)c1 [NED-2134, (E)-3,4,5-trihydroxy-N′-(naphthalen-1-ylmethylene)benzohydrazide] | 4.2 |  |
|  | 2 (≈ 6.21 µM) | 0.8 ± 0.2 |  | O=C(N/N=C/c1ccc2ccccc2c1)c1cc(O)c(O)c(O)c1 [NED-2135, (E)-3,4,5-trihydroxy-N′-(naphthalen-2-ylmethylene)benzohydrazide] | 2.4 |  |
|  | 2 (≈ 5.68 µM) | 1.35 ± 0.15 |  | COc1ccc2cc(/C=N/NC(=O)c3cc(O)c(O)c(O)c3)ccc2c1 [NED-2136] | 1 |  |
|  | 4 to 8 (≈ 10.6 to 21.3 µM) | 5 ± 1 |  | C#CCOc1ccc2ccccc2c1/C=N/NC(=O)c1cc(O)c(O)c(O)c1 [NED-2174, (E)-3,4,5-trihydroxy-N′-((2-(prop-2-yn-1-yloxy)naphthalen-1-yl)methylene)benzohydrazide] | 2.7 |  |
|  | 4 to 8 (≈ 9.31 to 18.6 µM) | 2.3 ± 0.8 |  | O=C(N/N=C/c1c(OCc2ccccn2)ccc2ccccc12)c1cc(O)c(O)c(O)c1 [NED-2175, (E)-3,4,5-trihydroxy-N′-((2-(pyridin-2-ylmethoxy)naphthalen-1-yl)methylene)benzohydrazide] | 14 |  |
